Settings: in vivo, po, 150 mg
Description: This example describes an in-vivo study, which measured plasma concentrations of bupropion achieved after oral administration of reference Wellbutrin® SR tablet and test bupropion hydrochloride sustained release tablets of example 1. The in-vivo study was carried out on 12+2 standby healthy adult subjects under fasting conditions. Plasma bupropion was determined over a 120 hour period, after single oral administration of the respective formulations. Each subject was administered each of the two formulations in cross over design separated by a washout period of 14 days between administrations of the two formulations. Plasma levels were measured at predetermined times utilizing a validated assay method employing LC-MS/MS instrumentation. Plasma pharmacokinetic parameters were evaluated using commercially available software WinNonlin version 5.0.1 or higher. The statistical analysis was performed using SAS® package (SAS® Institute Inc., USA version 9.1 or higher). Values derived at each time point and to determine the area under the curve (AUC) and maximum concentration (Cmax) afforded by Wellbutrin®SR and the test formulation.

Work on `CC(NC(C)(C)C)C(=O)c1cccc(Cl)c1` (stereo not drawn) [Wellbutrin ®SR] yielded an AUC0-t of 894.88 ngh/ml, an AUC0-α of 951.251 ngh/ml and a Cmax of 111.178 ng/mL.

Reference: patent publication US20100291225A1, “Stabilized Sustained Release Composition of Bupropion Hydrochloride and Process For Preparing the Same” (priority 2008, published 2010)
